Test results as given in patent US10294202B2, “Pyrrolidinones as herbicides” (FMC Corporation, priority 2013, dated 2019).

Experiments:
Test in all cases: Test D pre-/postemergence herbicide test
[1] = tested on: oilseed rape; assay type: in vivo, Brassica napus; settings: for Plant response rating: Postemergence, Oilseed Rape, scale 0 to 100; for Plant response rating, Oilseed Rape: Preemergence, scale 0 to 100 (0 no effect, 100 complete control)
How it was run: (§1)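 Greenhouse pre- and postemergence screen with surfactant-containing non-phytotoxic solvent formulations. Silt loam soil served for preemergence application, and peat/vermiculite medium for postemergence application at 2–18 cm height. Visual 0–100 control ratings versus controls were recorded 7 to 21 days later.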

[2] = tested on: windgrass; assay type: in vivo, Apera spica-venti; settings: for Plant response rating: Postemergence, Windgrass, scale 0 to 100; for Plant response rating, Windgrass: Preemergence, scale 0 to 100 (0 no effect, 100 complete control)
Description: (§2) Seeds of plant species selected from bluegrass (annual bluegrass, Poa annua), blackgrass (Alopecurus myosuroides), canarygrass (littleseed canarygrass, Phalaris minor), chickweed (common chickweed, Stellaria media), galium (catchweed bedstraw, Galium aparine), bromegrass, downy (downy bromegrass, Bromus tectorum), field poppy (Papaver rhoeas), field violet (Viola arvensis), foxtail, green (green foxtail, Setaria viridis), deadnettle (henbit deadnettle, Lamium amplexicaule), ryegrass, Italian (Italian ryegrass, Lolium multiflorum), kochia (Kochia scoparia), lambsquarters (Chenopodium album), oilseed rape (Brassica napus), pigweed (Amaranthus retroflexus), chamomile (scentless chamomile, Matricaria inodora), Russian thistle (Salsola kali), speedwell (bird's-eye speedwell, Veronica persica), barley, spring (spring barley, Hordeum vulgare), wheat, spring (spring wheat, Triticum aestivum), buckwheat, wild (wild buckwheat, Polygonum convolvulus), mustard, wild (wild mustard, Sinapis arvensis), oat, wild (wild oat, Avena fatua), radish, wild (wild radish, Raphanus raphanistrum), […]), barley, winter (winter barley, Hordeum vulgare), and wheat, winter (winter wheat, Triticum aestivum) were planted into a silt loam soil and treated preemergence with test chemicals formulated in a non-phytotoxic solvent mixture which included a surfactant. At the same time, these species were planted in pots containing Redi-Earth® planting medium (Scotts Company, 14111 Scottslawn Road, Marysville, Ohio 43041) comprising spaghnum peat moss, vermiculite, wetting agent and starter nutrients and treated with postemergence applications of the test chemicals formulated in the same manner. Plants ranged in height from 2 to 18 cm (1- to 4-leaf stage). Treated plants and controls were maintained in a controlled growth environment for 7 to 21 days after which time all species were compared to controls and visually evaluated. Plant response ratings, summarized in Table D, are based on a scale of 0 to 100 where 0 is no effect and 100 is complete control. A dash (-) response means no test result.

[3] = tested on: lambsquarters; assay type: in vivo, Chenopodium album; settings: for Plant response rating: Lambsquarters, scale 0 to 100; for Plant response rating, Lambsquarters: scale 0 to 100 (0 no effect, 100 complete control)
How it was run: as §1

[4] = tested on: barley, spring; assay type: in vivo, Hordeum vulgare; settings: for Plant response rating: Barley, Spring, scale 0 to 100; for Plant response rating, Barley, Spring: scale 0 to 100 (0 no effect, 100 complete control)
How it was run: as §1

[5] = tested on: bluegrass; assay type: in vivo, Poa annua; settings: for Plant response rating: Bluegrass, scale 0 to 100; for Plant response rating, Bluegrass: scale 0 to 100 (0 no effect, 100 complete control)
How it was run: as §1

[6] = tested on: mustard, wild; assay type: in vivo, Sinapis arvensis; settings: for Plant response rating: Mustard, Wild, scale 0 to 100; for Plant response rating, Mustard, Wild: scale 0 to 100 (0 no effect, 100 complete control)
Description: as §2

[7] = tested on: oat, wild; assay type: in vivo, Avena fatua; settings: for Plant response rating: Postemergence, Oat, Wild, scale 0 to 100; for Plant response rating, Oat, Wild: Preemergence, scale 0 to 100 (0 no effect, 100 complete control)
Description: as §2

[8] = tested on: Russian thistle; assay type: in vivo, Salsola kali; settings: for Plant response rating: Postemergence, Russian Thistle, scale 0 to 100; for Plant response rating, Russian Thistle: Preemergence, scale 0 to 100 (0 no effect, 100 complete control)
How it was run: as §1

How did the Plant response rating ([1]; 16 g ai/ha) turn out when `O=C1NCC(c2cc(F)c(F)cc2F)C1C(=O)Nc1cccc(F)c1F` (centres unmarked) [Compound 50] was run?
The Plant response rating was 5.

And the Plant response rating ([1]; 31 g ai/ha)?
Its Plant response rating is 5.

What about the Plant response rating ([1]; 62 g ai/ha) of the same molecule?
The Plant response rating was 5.

And the Plant response rating ([1]; 125 g ai/ha)?
The Plant response rating was 5.

What about the “Plant response rating, Oilseed Rape” value ([1]; 62 g ai/ha) of the same molecule?
The value was 0.

What about the “Plant response rating, Oilseed Rape” value ([1]; 125 g ai/ha) of the same molecule?
Its value is 0.

What about the “Plant response rating, Oilseed Rape” value ([1]; 16 g ai/ha) of the same molecule?
The value was 0.

And the “Plant response rating, Oilseed Rape” value ([1]; 31 g ai/ha)?
Its value is 0.

What about the Plant response rating ([2]; 16 g ai/ha) of the same molecule?
The Plant response rating was 0.

What about the Plant response rating ([2]; 31 g ai/ha) of the same molecule?
Its Plant response rating is 0.

And the Plant response rating ([2]; 62 g ai/ha)?
The Plant response rating was 0.

What about the Plant response rating ([2]; 125 g ai/ha) of the same molecule?
Its Plant response rating is 0.

What about the “Plant response rating, Windgrass” value ([2]; 62 g ai/ha) of the same molecule?
Its value is 5.

What about the “Plant response rating, Windgrass” value ([2]; 125 g ai/ha) of the same molecule?
Its value is 0.

What about the “Plant response rating, Windgrass” value ([2]; 16 g ai/ha) of the same molecule?
The value was 0.

What about the “Plant response rating, Windgrass” value ([2]; 31 g ai/ha) of the same molecule?
Its value is 0.

And the Plant response rating ([3]; Postemergence, 16 g ai/ha)?
The Plant response rating was 5.

What about the Plant response rating ([3]; Postemergence, 31 g ai/ha) of the same molecule?
The Plant response rating was 5.

What about the Plant response rating ([3]; Postemergence, 62 g ai/ha) of the same molecule?
Its Plant response rating is 5.

And the Plant response rating ([3]; Postemergence, 125 g ai/ha)?
Its Plant response rating is 20.

And the “Plant response rating, Lambsquarters” value ([3]; Preemergence, 62 g ai/ha)?
Its value is 0.

What about the “Plant response rating, Lambsquarters” value ([3]; Preemergence, 16 g ai/ha) of the same molecule?
The value was 0.

And the “Plant response rating, Lambsquarters” value ([3]; Preemergence, 31 g ai/ha)?
Its value is 0.

What about the Plant response rating ([3]; Preemergence, 125 g ai/ha) of the same molecule?
The Plant response rating was 0.

And the Plant response rating ([4]; Postemergence, 16 g ai/ha)?
Its Plant response rating is 0.

What about the Plant response rating ([4]; Postemergence, 31 g ai/ha) of the same molecule?
Its Plant response rating is 0.

What about the Plant response rating ([4]; Postemergence, 62 g ai/ha) of the same molecule?
The Plant response rating was 0.

And the Plant response rating ([4]; Postemergence, 125 g ai/ha)?
The Plant response rating was 0.

What about the “Plant response rating, Barley, Spring” value ([4]; Preemergence, 62 g ai/ha) of the same molecule?
Its value is 0.

What about the “Plant response rating, Barley, Spring” value ([4]; Preemergence, 16 g ai/ha) of the same molecule?
The value was 0.

And the “Plant response rating, Barley, Spring” value ([4]; Preemergence, 31 g ai/ha)?
Its value is 0.

And the Plant response rating ([4]; Preemergence, 125 g ai/ha)?
The Plant response rating was 0.

What about the Plant response rating ([5]; Postemergence, 16 g ai/ha) of the same molecule?
The Plant response rating was 0.

And the Plant response rating ([5]; Postemergence, 31 g ai/ha)?
The Plant response rating was 0.

And the Plant response rating ([5]; Postemergence, 62 g ai/ha)?
Its Plant response rating is 0.

What about the Plant response rating ([5]; Postemergence, 125 g ai/ha) of the same molecule?
The Plant response rating was 0.

What about the “Plant response rating, Bluegrass” value ([5]; Preemergence, 62 g ai/ha) of the same molecule?
The value was 0.

What about the “Plant response rating, Bluegrass” value ([5]; Preemergence, 16 g ai/ha) of the same molecule?
The value was 0.

What about the “Plant response rating, Bluegrass” value ([5]; Preemergence, 31 g ai/ha) of the same molecule?
Its value is 0.

What about the Plant response rating ([5]; Preemergence, 125 g ai/ha) of the same molecule?
Its Plant response rating is 0.

And the Plant response rating ([6]; Postemergence, 16 g ai/ha)?
The Plant response rating was 40.

What about the Plant response rating ([6]; Postemergence, 31 g ai/ha) of the same molecule?
The Plant response rating was 60.

And the Plant response rating ([6]; Postemergence, 125 g ai/ha)?
Its Plant response rating is 40.

What about the “Plant response rating, Mustard, Wild” value ([6]; Preemergence, 62 g ai/ha) of the same molecule?
Its value is 0.

And the “Plant response rating, Mustard, Wild” value ([6]; Preemergence, 16 g ai/ha)?
Its value is 50.

What about the Plant response rating ([6]; Preemergence, 125 g ai/ha) of the same molecule?
Its Plant response rating is 80.

And the Plant response rating ([7]; 16 g ai/ha)?
Its Plant response rating is 0.

What about the Plant response rating ([7]; 31 g ai/ha) of the same molecule?
Its Plant response rating is 0.

What about the Plant response rating ([7]; 62 g ai/ha) of the same molecule?
The Plant response rating was 0.

And the Plant response rating ([7]; 125 g ai/ha)?
Its Plant response rating is 0.

And the “Plant response rating, Oat, Wild” value ([7]; 62 g ai/ha)?
The value was 0.

And the “Plant response rating, Oat, Wild” value ([7]; 125 g ai/ha)?
The value was 0.

And the “Plant response rating, Oat, Wild” value ([7]; 16 g ai/ha)?
Its value is 0.

And the “Plant response rating, Oat, Wild” value ([7]; 31 g ai/ha)?
Its value is 0.

What about the Plant response rating ([8]; 16 g ai/ha) of the same molecule?
The Plant response rating was 5.

What about the Plant response rating ([8]; 31 g ai/ha) of the same molecule?
The Plant response rating was 0.

What about the Plant response rating ([8]; 62 g ai/ha) of the same molecule?
The Plant response rating was 10.

What about the Plant response rating ([8]; 125 g ai/ha) of the same molecule?
The Plant response rating was 5.

What about the “Plant response rating, Russian Thistle” value ([8]; 62 g ai/ha) of the same molecule?
Its value is 0.

What about the “Plant response rating, Russian Thistle” value ([8]; 125 g ai/ha) of the same molecule?
The value was 0.

What about the “Plant response rating, Russian Thistle” value ([8]; 16 g ai/ha) of the same molecule?
Its value is 0.

And the “Plant response rating, Russian Thistle” value ([8]; 31 g ai/ha)?
The value was 0.
